Assay results published in patent publication US20230150944A1, “PESTICIDALLY ACTIVE HETEROCYCLIC DERIVATIVES WITH SULFOXIMINE CONTAINING SUBSTITUENTS” (SYNGENTA CROP PROTECTION AG, priority 2018, published 2023).

What was measured:
Format in all cases: in vivo
[1] = system: Spodoptera littoralis (Egyptian Cotton Leaf Worm); assay: Example B7: Activity on Spodoptera littoralis, cotton leaf disc spray; settings: foliar, 72 h, application rate of 200 ppm, L1 larvae on cotton leaf discs, 3 days after infestation, read-out: control (mortality, anti-feeding effect or growth inhibition)
Description: Example B7: Activity on Spodoptera littoralis (Egyptian Cotton Leaf Worm)
Cotton leaf discs were placed onto agar in 24-well microtiter plates and sprayed with aqueous test solutions prepared from 10′000 ppm DMSO stock solutions. After drying the leaf discs were infested with five L1 larvae. The samples were assessed for mortality, anti-feeding effect, and growth inhibition in comparison to untreated samples 3 days after infestation. Control of Spodoptera littoralis by a test sample is given when at least one of the categories mortality, anti-feedant effect, and growth inhibition is higher than the untreated sample.

[2] = system: Myzus persicae (Green Peach Aphid); assay: Example B5: Activity on Myzus persicae, pea seedling roots in test solution; settings: 144 h, test rate of 24 ppm, roots of infested pea seedlings placed into test solution, 6 days
Description: Example B5: Activity on Myzus persicae (Green Peach Aphid)
Roots of pea seedlings infested with an aphid population of mixed ages were placed directly into aqueous test solutions prepared from 10′000 DMSO stock solutions. The samples were assessed for mortality 6 days after placing seedlings into test solutions.

[3] = system: Myzus persicae (Green Peach Aphid); assay: Example B4: Activity on Myzus persicae, sunflower leaf disc spray; settings: foliar, 144 h, application rate of 200 ppm, mixed-age aphids on sprayed sunflower leaf discs, 6 days after infestation
Description: Example B4: Activity on Myzus persicae (Green Peach Aphid)
Sunflower leaf discs were placed onto agar in a 24-well microtiter plate and sprayed with aqueous test solutions prepared from 10′000 ppm DMSO stock solutions. After drying, the leaf discs were infested with an aphid population of mixed ages. The samples were assessed for mortality 6 days after infestation.

[4] = system: Plutella xylostella (Diamond Back Moth); assay: Example B6: Activity on Plutella xylostella, artificial diet, L2 larvae; settings: 120 h, application rate of 200 ppm, 5 days after infestation, read-out: effect in at least one of the two categories (mortality or growth inhibition)
Description: Example B6: Activity on Plutella xylostella (Diamond Back Moth)
(§1) 24-well microtiter plates with artificial diet were treated with aqueous test solutions prepared from 10′000 ppm DMSO stock solutions by pipetting. After drying, the plates were infested with L2 larvae (10 to 15 per well). The samples were assessed for mortality and growth inhibition in comparison to untreated samples 5 days after infestation.

[5] = system: Diabrotica balteata (Corn Root Worm); assay: Example B2: Activity on Diabrotica balteata, maize sprout spray; settings: 96 h, application rate of 200 ppm, L2 larvae on maize sprouts, 4 days after infestation, read-out: effect in at least one of the two categories (mortality or growth inhibition)
Description: Example B2: Activity on Diabrotica balteata (Corn Root Worm)
as §1, with “Maize sprouts placed onto an agar layer in 24-well” for “24-well”, “plates” for “plates with artificial diet”, “spraying.” for “pipetting.”, “(6” for “(10”, “10” for “15”, “4” for “5”

[6] = system: Bemisia tabaci (Cotton White Fly); assay: Example B1: Activity on Bemisia tabaci, cotton leaf disc spray; settings: foliar, 144 h, application rate of 200 ppm, adult white flies on cotton leaf discs, 6 days after incubation
Description: Example B1: Activity on Bemisia tabaci (Cotton White Fly)
Cotton leaf discs were placed on agar in 24-well microtiter plates and sprayed with aqueous test solutions prepared from 10′000 ppm DMSO stock solutions. After drying the leaf discs were infested with adult white flies. The samples were checked for mortality 6 days after incubation.

[7] = system: Euschistus heros (Neotropical Brown Stink Bug); assay: Example B3: Activity on Euschistus heros, soybean leaf spray; settings: 120 h, application rate of 200 ppm, N2 nymphs on soybean leaves, 5 days after infestation, read-out: effect in at least one of the two categories (mortality or growth inhibition)
Description: Example B3: Activity on Euschistus heros (Neotropical Brown Stink Bug)
Soybean leaves on agar in 24-well microtiter plates were sprayed with aqueous test solutions prepared from 10′000 ppm DMSO stock solutions. After drying the leaves were infested with N2 nymphs. The samples were assessed for mortality and growth inhibition in comparison to untreated samples 5 days after infestation.

CCS(=N)(=O)c1cc(C2CC2)cnc1-c1nc2cc(C(F)(F)F)cnc2n1C (stereo not shown) [Example P12, [5-cyclopropyl-2-[3-methyl-6-(trifluoromethyl)imidazo[4,5-b]pyridin-2-yl]-3-pyridyl]-ethyl-imino-oxo-λ^6-sulfane]
≥ 80%: percent control (mortality, anti-feedant effect or growth inhibition) at 200 ppm [1] | mortality at 24 ppm [2] | mortality at 200 ppm [3] | percent effect (mortality or growth inhibition) at 200 ppm [4] | percent effect (mortality or growth inhibition) at 200 ppm [5]

CCS(=N)(=O)c1cc(C2CC2)cnc1-c1nc2cc(C(F)(F)F)ncc2n1C (stereo not shown) [Example P5, [5-cyclopropyl-2-[3-methyl-6-(trifluoromethyl)imidazo[4,5-c]pyridin-2-yl]-3-pyridyl]-ethyl-imino-oxo-λ^6-sulfane]
≥ 80%: percent control (mortality, anti-feedant effect or growth inhibition) at 200 ppm [1] | mortality at 24 ppm [2] | mortality at 200 ppm [3] | percent effect (mortality or growth inhibition) at 200 ppm [4] | percent effect (mortality or growth inhibition) at 200 ppm [5]

CCS(=N)(=O)c1cc(C2CC2)cnc1-n1cc2cnc(C(F)(F)F)cc2n1 (stereo not shown) [Example P7, [5-cyclopropyl-2-[6-(trifluoromethyl)pyrazolo[4,3-c]pyridin-2-yl]-3-pyridyl]-ethyl-imino-oxo-λ^6-sulfane]
≥ 80%: percent control (mortality, anti-feedant effect or growth inhibition) at 200 ppm [1] | mortality at 24 ppm [2] | mortality at 200 ppm [3] | percent effect (mortality or growth inhibition) at 200 ppm [4] | percent effect (mortality or growth inhibition) at 200 ppm [5]

CCS(=N)(=O)c1cc(C2(C#N)CC2)ccc1-c1nc2cc(C(F)(F)F)ncc2n1C (stereo not shown) [Example P13, 1-[3-(ethylsulfonimidoyl)-4-[3-methyl-6-(trifluoromethyl)imidazo[4,5-c]pyridin-2-yl]phenyl]cyclopropanecarbonitrile]
≥ 80%: mortality at 24 ppm [2] | mortality at 200 ppm [6] | mortality at 200 ppm [3] | percent effect (mortality or growth inhibition) at 200 ppm [7] | percent effect (mortality or growth inhibition) at 200 ppm [5]

CCS(=N)(=O)c1cc(C2CC2)cnc1-c1nc2cc(C(F)(F)F)nnc2n1C (stereo not shown) [Example P11, [5-cyclopropyl-2-[7-methyl-3-(trifluoromethyl)imidazo[4,5-c]pyridazin-6-yl]-3-pyridyl]-ethyl-imino-oxo-λ^6-sulfane]
≥ 80%: percent control (mortality, anti-feedant effect or growth inhibition) at 200 ppm [1] | mortality at 24 ppm [2] | mortality at 200 ppm [3] | percent effect (mortality or growth inhibition) at 200 ppm [4] | percent effect (mortality or growth inhibition) at 200 ppm [5]

CCS(=N)(=O)c1cc(C2(C#N)CC2)cnc1-c1nc2cc(C(F)(F)F)nnc2n1C (stereo not shown) [Example P10, 1-[5-(ethylsulfonimidoyl)-6-[7-methyl-3-(trifluoromethyl)imidazo[4,5-c]pyridazin-6-yl]-3-pyridyl]cyclopropanecarbonitrile]
≥ 80%: mortality at 24 ppm [2] | mortality at 200 ppm [6] | mortality at 200 ppm [3] | percent effect (mortality or growth inhibition) at 200 ppm [7] | percent effect (mortality or growth inhibition) at 200 ppm [5]

CCS(=N)(=O)c1cc(C2(C#N)CC2)cnc1-c1nc2cc(C(F)(F)F)cnc2n1C (stereo not shown) [Example P6, 1-[5-(ethylsulfonimidoyl)-6-[3-methyl-6-(trifluoromethyl)imidazo[4,5-b]pyridin-2-yl]-3-pyridyl]cyclopropanecarbonitrile]
≥ 80%: mortality at 24 ppm [2] | mortality at 200 ppm [6] | mortality at 200 ppm [3] | percent effect (mortality or growth inhibition) at 200 ppm [4]

CCS(=N)(=O)c1cc(C2(C#N)CC2)ccc1-c1nc2cc(SC(F)(F)F)ncc2n1C (stereo not shown) [Example P9, 1-[3-(ethylsulfonimidoyl)-4-[3-methyl-6-(trifluoromethylsulfanyl)imidazo[4,5-c]pyridin-2-yl]phenyl]cyclopropanecarbonitrile]
≥ 80%: mortality at 24 ppm [2] | mortality at 200 ppm [3] | percent effect (mortality or growth inhibition) at 200 ppm [7]
